Read-outs that look alike come from different tables or passages of the source.
Tests used:
[1] = target: T1, Peroxisome proliferator-activated receptor γ (Homo sapiens, UniProt P37231); experiment: cell-based; conditions: for EC10, linear: linear model; for logEC10: log-logistic model
T1 sequence (P37231 238-505 limits assumed): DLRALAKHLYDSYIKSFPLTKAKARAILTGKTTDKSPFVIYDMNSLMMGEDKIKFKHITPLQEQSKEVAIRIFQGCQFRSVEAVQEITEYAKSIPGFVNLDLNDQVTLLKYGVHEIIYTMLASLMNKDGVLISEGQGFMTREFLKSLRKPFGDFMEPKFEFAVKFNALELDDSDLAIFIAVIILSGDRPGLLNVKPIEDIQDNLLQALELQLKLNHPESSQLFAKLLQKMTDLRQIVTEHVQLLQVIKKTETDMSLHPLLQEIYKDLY
In short: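 Reporter cells (ERα-UAS-bla GripTite; PPARγ-UAS-bla) grew 24 h at 37 °C, 5% CO₂ in medium containing 2% charcoal-stripped FBS. Cytotoxicity, tracked as IncuCyte confluency, capped data at IC10 for EC10 derivation. Emax% is the fitted log-logistic maximum expressed against the reference chemical's maximum.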

MCF7 (ARE/MMP) = conditions: for IC10, linear transformed / IC10, linear / logIC10: dosing range all; for IC10, MCF7, ARE: MCF7, ARE readout; for IC10, MCF7, MMP: MCF7, MMP readout
In short: (§1)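 Cells were seeded in 384-well plates for 24 h, then dosed in 11-step dilutions and exposed for 24 h at 37 °C. Viability came from IncuCyte confluency before and after exposure. Only concentrations below IC10 were used for EC10 or, for ARE, the concentration giving induction ratio 1.5 (ECIR1.5).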

HEK293T (ERα) = conditions: for IC10, linear transformed / IC10, linear / logIC10: Bioassay ERα, dosing range all; for IC10, linear transformed / IC10, linear / logIC10 / IC10, HEK293, ERα: cytotoxicity; for IC10, linear: linear model fit; for logIC10: log-logistic model fit; for IC10, HEK293, ERα: HEK293 (ERα assay cells)
In short: as §1

HEK293H (PPARγ) = conditions: for IC10, linear transformed / IC10, linear / logIC10: PPARγ bioassay cytotoxicity, dosing range all; for IC10, linear: linear model; for logIC10: log-logistic model; for IC10, HEK293, PPARγ: cytotoxicity, HEK293 (PPARγ assay cells)
In short: as §1

H4IIe (AhR CALUX) = conditions: for IC10, linear transformed / IC10, linear / logIC10: Bioassay AhR, dosing range all; for IC10, linear transformed / IC10, linear / logIC10 / IC10, H4IIe, AhR: cytotoxicity; for IC10, linear: linear model fit; for logIC10: log-logistic model fit; for IC10, H4IIe, AhR: H4IIe (AhR assay cells)
In short: as §1

[2] = PPARγ bioassay, dosing range all
[3] = Bioassay ARE, cytotoxicity, linear model fit
[4] = Bioassay ARE, cytotoxicity, log-logistic model fit
[5] = MMP bioassay cytotoxicity, linear model
[6] = MMP bioassay cytotoxicity, log-logistic model

## CC(C)(c1ccc(O)c(-c2ccccc2)c1)c1ccc(O)c(-c2ccccc2)c1 [BPPH, 2,2-Bis(2-hydroxy-5-biphenylyl)propane]
[1]; 10% of maximum effect of rosiglitazone
  EC10, PPARγ (M): 5.55 × 10^–7 M
[1]; [2]
  EC10, linear transformed: 5.55E-07
  EC10, linear: 9.24E-07
  logEC10: -6.26
[1]; SR-Score, sigma k=1, x=5
  SR-ScorePPARγ: 1.00
[1]; against baseline cytotoxicity
  Specificity ratio (SRbaseline) SRPPARγ: 1.90
[1]; against experimental cytotoxicity
  Specificity ratio (SRcytotoxicity) SRPPARγ: 12.47
[1]; effect
  EC10, PPARγ: 0.555 µM
[1]; input of the ToxPi score, values up to 1.00
  log(1/EC10) PPARγ: 0.88
[1]; read-out: Emax%PPARγ
  Emax: 12%
MCF7 (ARE/MMP); Bioassay ARE, cytotoxicity
  IC10, linear transformed: 2.86E-06
MCF7 (ARE/MMP); [3]
  IC10, linear: 5.76E-06
MCF7 (ARE/MMP); [4]
  logIC10: -5.54
MCF7 (ARE/MMP); MMP bioassay cytotoxicity
  IC10, linear transformed: 7.75E-06
MCF7 (ARE/MMP); [5]
  IC10, linear: 5.66E-06
MCF7 (ARE/MMP); [6]
  logIC10: -5.11
MCF7 (ARE/MMP); against baseline cytotoxicity, ARE readout
  Toxic ratio (TR) TRARE: 1.43
MCF7 (ARE/MMP); against baseline cytotoxicity, MMP readout
  Toxic ratio (TR) TRMMP: 0.53
MCF7 (ARE/MMP); cytotoxicity
  IC10, MCF7, ARE: 2.86 µM
  IC10, MCF7, MMP: 7.75 µM
HEK293T (ERα)
  IC10, linear transformed: 5.43E-06
  IC10, linear: no cytotoxicity
  logIC10: -5.08
  IC10, HEK293, ERα: 8.3 µM
HEK293T (ERα); against baseline cytotoxicity
  Toxic ratio (TR) TRERα: 0.13
HEK293H (PPARγ)
  IC10, linear transformed: 4.34E-06
  IC10, linear: 8.25E-06
  logIC10: -5.16
  IC10, HEK293, PPARγ: 6.92 µM
HEK293H (PPARγ); against baseline cytotoxicity
  Toxic ratio (TR) TRPPARγ: 0.15
H4IIe (AhR CALUX)
  IC10, linear transformed: 1.81E-05
  IC10, linear: 1.29E-05
  logIC10: -4.74
  IC10, H4IIe, AhR: 12.9 µM
H4IIe (AhR CALUX); against baseline cytotoxicity
  Toxic ratio (TR) TRAhR: 0.32

## Oc1ccc(Cc2ccc(O)cc2)cc1 [BPF, Bis(4-hydroxyphenyl)methane]
[1]; [2]
  EC10, linear: no effect
  logEC10: no effect
MCF7 (ARE/MMP); Bioassay ARE, cytotoxicity
  IC10, linear transformed: 6.56E-04
MCF7 (ARE/MMP); [3]
  IC10, linear: 6.90E-04
MCF7 (ARE/MMP); [4]
  logIC10: -3.18
MCF7 (ARE/MMP); MMP bioassay cytotoxicity
  IC10, linear transformed: 5.26E-04
MCF7 (ARE/MMP); [5]
  IC10, linear: 5.00E-04
MCF7 (ARE/MMP); [6]
  logIC10: -3.28
MCF7 (ARE/MMP); cytotoxicity
  IC10, MCF7, ARE: 656 µM
  IC10, MCF7, MMP: 526 µM
HEK293T (ERα)
  IC10, linear transformed: 1.16E-05
  IC10, linear: 1.61E-04
  logIC10: -3.78
  IC10, HEK293, ERα: 164 µM
HEK293H (PPARγ)
  IC10, linear transformed: 6.05E-06
  IC10, linear: 1.05E-04
  logIC10: -4.01
  IC10, HEK293, PPARγ: 97.7 µM
H4IIe (AhR CALUX)
  IC10, linear transformed: 2.92E-04
  IC10, linear: 2.92E-04
  logIC10: -3.53
  IC10, H4IIe, AhR: 292 µM

Reference: publication PMC12392461, “Beyond Estrogenicity: A Comparative Assessment of Bisphenol A and Its Alternatives in In Vitro Assays Questions Safety of Replacements” (Environmental Science & Technology, 2025)
